Patent US20090240048A1, “Alpha-crystalline form of substituted selenoxanthenes and the method of its preparation” (MEDBIOPHARM LTD, priority 2008, published 2009)

How the values were obtained:
[1] = Angle of repose (flowability) of powder; type: physicochemical
Storage life = type: physicochemical

`c1ccc(C2C3=C(CCCC3)[Se]C3=C2CCCC3)cc1` [9-phenyl-symmetrical-octahydroselenoxanthene] gave an Angle of repose [1] of 52° and a Storage life (Storage life) of 6 months.
